According to the supplement of paper PMC10307832:

Columns and labels:
Assay in all cases: relative viability (nuclei count vs DMSO), 5 days (fraction); higher = more cells survive
NCI-H2347 = test system: NCI-H2347
How it was run: (§1)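 The day after seeding in 1536-well plates, lung cancer cell lines were treated by pin tool with a single drug, or with a fixed anchor-drug dose together with five library-drug doses (not always all listed) in √10 steps. After 5 days, a combined fix-and-stain solution (final 0.05% Triton X-100, 1% formaldehyde, 1 ug/ml Hoechst) was added. Nuclei counted on 4× images gave relative viability as treated counts over vehicle counts, reported as the median of duplicate plates.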

EKVX = test system: EKVX
How it was run: as §1

PC-3 [JPC-3] = test system: PC-3 [JPC-3]
How it was run: as §1

LOU-NH91 = test system: LOU-NH91
How it was run: as §1

NCI-H650 = test system: NCI-H650
How it was run: as §1

NCI-H838 = test system: NCI-H838
How it was run: as §1

IA-LM = test system: IA-LM
How it was run: as §1

SW 1573 = test system: SW 1573
How it was run: as §1

LCLC-97TM1 = test system: LCLC-97TM1
How it was run: as §1

LU99A = test system: LU99A
How it was run: as §1

NCI-H1650 = test system: NCI-H1650
How it was run: as §1

LC-2-ad = test system: LC-2-ad
How it was run: as §1

NCI-H1915 = test system: NCI-H1915
How it was run: as §1

NCI-H23 = test system: NCI-H23
How it was run: as §1

RERF-LC-KJ = test system: RERF-LC-KJ
How it was run: as §1

NCI-H1355 = test system: NCI-H1355
How it was run: as §1

NCI-H1993 = test system: NCI-H1993
How it was run: as §1

NCI-H1793 = test system: NCI-H1793
How it was run: as §1

BEN = test system: BEN
How it was run: as §1

NCI-H1666 = test system: NCI-H1666
How it was run: as §1

NCI-H460 = test system: NCI-H460
How it was run: as §1

A-427 = test system: A-427
How it was run: as §1

NCI-H520 = test system: NCI-H520
How it was run: as §1

NCI-H1648 = test system: NCI-H1648
How it was run: as §1

NCI-H2228 = test system: NCI-H2228
How it was run: as §1

## CCCCCCCCCCCC1=C(O)C(=O)C=C(O)C1=O [Embelin] + O=C(CCCCCCC(=O)Nc1ccccc1)NO [Vorinostat] (partner 1 µM)
NCI-H2347; first compound 0.08 µM
  relative viability: 0.557
NCI-H2347; first compound 0.8 µM
  relative viability: 0.628
NCI-H2347; first compound 2.53 µM
  relative viability: 0.513
NCI-H2347; first compound 8 µM
  relative viability: 0.656
EKVX; first compound 0.08 µM
  relative viability: 0.744
EKVX; first compound 0.8 µM
  relative viability: 0.962
EKVX; first compound 2.53 µM
  relative viability: 0.832
EKVX; first compound 8 µM
  relative viability: 0.754
PC-3 [JPC-3]; first compound 0.08 µM
  relative viability: 0.614
PC-3 [JPC-3]; first compound 0.8 µM
  relative viability: 0.95
PC-3 [JPC-3]; first compound 2.53 µM
  relative viability: 0.68
PC-3 [JPC-3]; first compound 8 µM
  relative viability: 0.604
LOU-NH91; first compound 0.08 µM
  relative viability: 0.939
LOU-NH91; first compound 0.8 µM
  relative viability: 1.2
LOU-NH91; first compound 2.53 µM
  relative viability: 0.933
LOU-NH91; first compound 8 µM
  relative viability: 0.876
NCI-H650; first compound 0.08 µM
  relative viability: 0.393
NCI-H650; first compound 0.8 µM
  relative viability: 0.557
NCI-H650; first compound 2.53 µM
  relative viability: 0.354
NCI-H650; first compound 8 µM
  relative viability: 0.484
NCI-H838; first compound 0.08 µM
  relative viability: 0.746
NCI-H838; first compound 0.8 µM
  relative viability: 0.835
NCI-H838; first compound 2.53 µM
  relative viability: 0.782
NCI-H838; first compound 8 µM
  relative viability: 0.704
IA-LM; first compound 0.08 µM
  relative viability: 0.963
IA-LM; first compound 0.8 µM
  relative viability: 1.03
IA-LM; first compound 2.53 µM
  relative viability: 1.2
IA-LM; first compound 8 µM
  relative viability: 0.937
SW 1573; first compound 0.08 µM
  relative viability: 0.7
SW 1573; first compound 0.8 µM
  relative viability: 1.1
SW 1573; first compound 2.53 µM
  relative viability: 0.817
SW 1573; first compound 8 µM
  relative viability: 0.716
LCLC-97TM1; first compound 0.08 µM
  relative viability: 0.789
LCLC-97TM1; first compound 0.8 µM
  relative viability: 1.16
LCLC-97TM1; first compound 2.53 µM
  relative viability: 0.652
LCLC-97TM1; first compound 8 µM
  relative viability: 0.496
LU99A; first compound 0.08 µM
  relative viability: 0.56
LU99A; first compound 0.8 µM
  relative viability: 0.461
LU99A; first compound 2.53 µM
  relative viability: 0.586
LU99A; first compound 8 µM
  relative viability: 0.336
NCI-H1650; first compound 0.08 µM
  relative viability: 0.634
NCI-H1650; first compound 0.8 µM
  relative viability: 0.641
NCI-H1650; first compound 2.53 µM
  relative viability: 0.543
NCI-H1650; first compound 8 µM
  relative viability: 0.562
LC-2-ad; first compound 0.08 µM
  relative viability: 0.759
LC-2-ad; first compound 0.8 µM
  relative viability: 0.695
LC-2-ad; first compound 2.53 µM
  relative viability: 0.716
LC-2-ad; first compound 8 µM
  relative viability: 0.774
NCI-H1915; first compound 0.08 µM
  relative viability: 0.563
NCI-H1915; first compound 0.8 µM
  relative viability: 0.544
NCI-H1915; first compound 2.53 µM
  relative viability: 0.521
NCI-H1915; first compound 8 µM
  relative viability: 0.473
NCI-H23; first compound 0.08 µM
  relative viability: 0.58
NCI-H23; first compound 0.8 µM
  relative viability: 0.604
NCI-H23; first compound 2.53 µM
  relative viability: 0.584
NCI-H23; first compound 8 µM
  relative viability: 0.433
RERF-LC-KJ; first compound 0.08 µM
  relative viability: 0.673
RERF-LC-KJ; first compound 0.8 µM
  relative viability: 0.769
RERF-LC-KJ; first compound 2.53 µM
  relative viability: 0.681
RERF-LC-KJ; first compound 8 µM
  relative viability: 0.603
NCI-H1355; first compound 0.08 µM
  relative viability: 0.649
NCI-H1355; first compound 0.8 µM
  relative viability: 0.699
NCI-H1355; first compound 2.53 µM
  relative viability: 0.636
NCI-H1355; first compound 8 µM
  relative viability: 0.523
NCI-H1993; first compound 0.08 µM
  relative viability: 0.825
NCI-H1993; first compound 0.8 µM
  relative viability: 0.772
NCI-H1993; first compound 2.53 µM
  relative viability: 0.764
NCI-H1993; first compound 8 µM
  relative viability: 0.646
NCI-H1793; first compound 0.08 µM
  relative viability: 0.728
NCI-H1793; first compound 0.8 µM
  relative viability: 0.842
NCI-H1793; first compound 2.53 µM
  relative viability: 0.754
NCI-H1793; first compound 8 µM
  relative viability: 0.439
BEN; first compound 0.08 µM
  relative viability: 0.57
BEN; first compound 0.8 µM
  relative viability: 0.613
BEN; first compound 2.53 µM
  relative viability: 0.647
BEN; first compound 8 µM
  relative viability: 0.515
NCI-H1666; first compound 0.08 µM
  relative viability: 1.07
NCI-H1666; first compound 0.8 µM
  relative viability: 1.03
NCI-H1666; first compound 2.53 µM
  relative viability: 1.09
NCI-H1666; first compound 8 µM
  relative viability: 1.05
NCI-H460; first compound 0.08 µM
  relative viability: 0.687
NCI-H460; first compound 0.8 µM
  relative viability: 0.948
NCI-H460; first compound 2.53 µM
  relative viability: 0.933
NCI-H460; first compound 8 µM
  relative viability: 0.397
A-427; first compound 0.08 µM
  relative viability: 0.856
A-427; first compound 0.8 µM
  relative viability: 0.899
A-427; first compound 2.53 µM
  relative viability: 0.88
A-427; first compound 8 µM
  relative viability: 0.441
NCI-H520; first compound 0.08 µM
  relative viability: 0.741
NCI-H520; first compound 0.8 µM
  relative viability: 0.816
NCI-H520; first compound 2.53 µM
  relative viability: 0.75
NCI-H520; first compound 8 µM
  relative viability: 0.573
NCI-H1648; first compound 0.08 µM
  relative viability: 0.464
NCI-H1648; first compound 0.8 µM
  relative viability: 0.908
NCI-H1648; first compound 2.53 µM
  relative viability: 0.487
NCI-H1648; first compound 8 µM
  relative viability: 0.699
NCI-H2228; first compound 0.08 µM
  relative viability: 0.407
NCI-H2228; first compound 0.8 µM
  relative viability: 0.819
NCI-H2228; first compound 2.53 µM
  relative viability: 0.36
NCI-H2228; first compound 8 µM
  relative viability: 0.85
